The values below are quoted from earlier work in patent US9809617B2, “Crystal form of regadenoson and preparation method thereof” (Shanghai Ziyuan Pharmaceutical Co., Ltd., priority 2015, dated 2017).

The structures appear in SMILES notation.

The conditions of the data set: heat / humidity, as described for U.S. Pat. No. 7,732,595.
In the case of `CCNC(=O)c1cnn(-c2nc(N)c3ncn(C4O[C@H](CO)[C@@H](O)[C@H]4O)c3n2)c1` (stereo partly drawn) [crystal form C], the “stability of crystal form (in words)” value is given as “unstable after losing crystal water under a high temperature”.
In the case of `CCNC(=O)c1cnn(-c2nc(N)c3ncn(C4O[C@H](CO)[C@@H](O)[C@H]4O)c3n2)c1` (stereo partly drawn) [Crystal form A], the “stability of crystal form (in words)” value is on record as “stable under heating under relative humidity stress conditions up to its melting point”.
On to `CCNC(=O)c1cnn(-c2nc(N)c3ncn(C4O[C@H](CO)[C@@H](O)[C@H]4O)c3n2)c1` (stereo partly drawn) [amorphous form of regadenoson], for which the “stability of crystal form (in words)” value is “unstable in atmospheric moisture”.
